Here are results for three molecules from ChEMBL document CHEMBL5120922, “Discovery, Optimization, and Evaluation of Potent and Selective PI3Kδ-γ Dual Inhibitors for the Treatment of B-cell Malignancies” (J Med Chem, 2022).

Assay [1] relates to SU-DHL-6. In words: Induction of apoptosis in human SU-DHL-6 cells assessed as necrotic cells at 1.5 uM incubated for 48 hrs by annexin V-FITC and PI staining based flow cytometry analysis (reference value: 0.32%). The class given is functional. For orientation: In flow cytometry, cells or beads pass a laser one at a time.
Assay [2] concerns SU-DHL-6. Description: Induction of cell cycle arrest in human SU-DHL-6 cells assessed as accumulation of cells at S phase at 0.5 uM incubated for 24 hrs by PI staining based FACScan flow cytometry analysis (reference value: 24.18 %). The format is functional.
Assay [3] relates to DOHH-2. In words: Induction of cell cycle arrest in human DOHH-2 cells assessed as accumulation of cells at G2/M phase at 1 uM incubated for 24 hrs by PI staining based flow cytometry analysis (reference value: 21.42 %). The class given is functional.
Assay [4] has as its system DOHH-2. In words: Induction of cell cycle arrest in human DOHH-2 cells assessed as accumulation of cells at S phase at 1 uM incubated for 24 hrs by PI staining based flow cytometry analysis (reference value: 55.11 %). The class given is functional.
Assay [5] has as its system DOHH-2. Description: Induction of apoptosis in human DOHH-2 cells assessed as viable cells at 1 uM incubated for 48 hrs by annexin V-FITC and PI staining based flow cytometry analysis (reference value: 95.4 %). The following applies: read-out: Activity. The format is functional.
The subject of assay [6] is SU-DHL-6. Description: Induction of apoptosis in human SU-DHL-6 cells assessed as late apoptotic cells at 1.5 uM incubated for 48 hrs by annexin V-FITC and PI staining based flow cytometry analysis (reference value: 3.88 %). The class given is functional.
Assay [7] has as its system DOHH-2. In words: Induction of apoptosis in human DOHH-2 cells assessed as necrotic cells at 1 uM incubated for 48 hrs by annexin V-FITC and PI staining based flow cytometry analysis (Rvb =0.29 %). The class given is functional.
The subject of assay [8] is DOHH-2. Description: Induction of apoptosis in human DOHH-2 cells assessed as late apoptotic cells at 1 uM incubated for 48 hrs by annexin V-FITC and PI staining based flow cytometry analysis (reference value: 2.20 %). The format is functional.
Assay [9] concerns SU-DHL-6. In words: Induction of apoptosis in human SU-DHL-6 cells assessed as early apoptotic cells at 1.5 uM incubated for 48 hrs by annexin V-FITC and PI staining based flow cytometry analysis (reference value: 8.81 %). The format is functional.
The subject of assay [10] is DOHH-2. Description: Induction of cell cycle arrest in human DOHH-2 cells assessed as accumulation of cells at G0/G1 phase at 1 uM incubated for 24 hrs by PI staining based flow cytometry analysis (reference value: 23.47 %). The class given is functional.
The test system of assay [11] is SU-DHL-6. In words: Induction of apoptosis in human SU-DHL-6 cells assessed as viable cells at 1.5 uM incubated for 48 hrs by annexin V-FITC and PI staining based flow cytometry analysis (reference value: 87.0 %). The class given is functional. As to conditions: read-out: Activity.
The subject of assay [12] is SU-DHL-6. In words: Induction of cell cycle arrest in human SU-DHL-6 cells assessed as accumulation of cells at G0/G1 phase at 0.5 uM incubated for 24 hrs by PI staining based FACScan flow cytometry analysis (reference value: 55.61 %). The format is functional.
Assay [13] relates to SU-DHL-6. Description: Induction of cell cycle arrest in human SU-DHL-6 cells assessed as accumulation of cells at G2/M phase at 0.5 uM incubated for 24 hrs by PI staining based FACScan flow cytometry analysis (reference value: 20.21 %). The format is functional.
Assay [14] relates to DOHH-2. In words: Induction of apoptosis in human DOHH-2 cells assessed as early apoptotic cells at 1 uM incubated for 48 hrs by annexin V-FITC and PI staining based flow cytometry analysis (reference value: 2.09 %). The class given is functional.
The target in assay [15] is Phosphatidylinositol 4,5-bisphosphate 3-kinase catalytic subunit alpha isoform (Homo sapiens, UniProt P42336). In words: Inhibition of N-terminal His6-tagged recombinant full length human PI3Kalpha expressed in baculovirus infected Sf21 insect cells incubated for 30 mins by HTRF assay. (TR-FRET usually uses a lanthanide donor and a delayed reading to cut background.)
Sequence of Phosphatidylinositol 4,5-bisphosphate 3-kinase catalytic subunit alpha isoform (P42336 whole entry, canonical isoform): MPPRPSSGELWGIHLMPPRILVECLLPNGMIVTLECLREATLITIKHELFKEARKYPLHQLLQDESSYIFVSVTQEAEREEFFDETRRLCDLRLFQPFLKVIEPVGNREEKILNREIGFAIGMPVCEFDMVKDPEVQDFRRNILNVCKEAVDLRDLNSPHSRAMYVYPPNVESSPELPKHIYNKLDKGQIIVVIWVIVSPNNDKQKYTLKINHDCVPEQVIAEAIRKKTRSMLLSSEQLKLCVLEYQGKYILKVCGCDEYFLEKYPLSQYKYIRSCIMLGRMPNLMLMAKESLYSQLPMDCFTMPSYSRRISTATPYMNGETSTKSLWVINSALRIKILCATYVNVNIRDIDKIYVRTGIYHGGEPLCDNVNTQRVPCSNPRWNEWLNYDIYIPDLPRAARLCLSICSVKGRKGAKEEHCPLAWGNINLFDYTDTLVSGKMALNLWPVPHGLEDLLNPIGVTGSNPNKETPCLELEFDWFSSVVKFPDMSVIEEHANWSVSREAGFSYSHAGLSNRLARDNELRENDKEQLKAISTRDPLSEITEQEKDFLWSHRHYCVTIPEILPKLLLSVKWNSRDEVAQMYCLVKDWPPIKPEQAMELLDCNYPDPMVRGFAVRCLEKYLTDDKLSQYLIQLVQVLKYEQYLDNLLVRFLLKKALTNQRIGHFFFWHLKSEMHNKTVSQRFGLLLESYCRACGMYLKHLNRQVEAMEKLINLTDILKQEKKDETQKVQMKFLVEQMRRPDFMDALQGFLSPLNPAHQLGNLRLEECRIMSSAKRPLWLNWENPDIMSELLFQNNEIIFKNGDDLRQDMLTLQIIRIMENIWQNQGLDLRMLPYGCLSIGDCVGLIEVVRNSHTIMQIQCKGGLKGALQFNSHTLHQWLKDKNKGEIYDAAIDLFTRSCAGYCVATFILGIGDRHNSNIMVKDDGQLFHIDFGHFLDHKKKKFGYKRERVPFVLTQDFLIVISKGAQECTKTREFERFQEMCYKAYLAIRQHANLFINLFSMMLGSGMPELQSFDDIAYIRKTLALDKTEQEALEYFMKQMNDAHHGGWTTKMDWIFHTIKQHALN

For assay [16], the system named is SU-DHL-6. Description: Antiproliferative activity against human SU-DHL-6 cells assessed as cell growth inhibition measured after 72 hrs by MTT assay. As to conditions: SU-DHL-6, 72 h. The format is functional, cell-based. (Formazan colour is commonly taken as a measure of viable cells.)
Assay [17] addresses Phosphatidylinositol 4,5-bisphosphate 3-kinase catalytic subunit gamma isoform (Homo sapiens, UniProt P48736). Description: Inhibition of N-terminal His6-tagged recombinant full length human PI3Kgamma expressed in baculovirus infected Sf21 insect cells incubated for 30 mins by HTRF assay.
For assay [18], the target named is T1, Phosphatidylinositol 4,5-bisphosphate 3-kinase catalytic subunit delta isoform (Homo sapiens, UniProt O00329).
T1 sequence (O00329 whole entry): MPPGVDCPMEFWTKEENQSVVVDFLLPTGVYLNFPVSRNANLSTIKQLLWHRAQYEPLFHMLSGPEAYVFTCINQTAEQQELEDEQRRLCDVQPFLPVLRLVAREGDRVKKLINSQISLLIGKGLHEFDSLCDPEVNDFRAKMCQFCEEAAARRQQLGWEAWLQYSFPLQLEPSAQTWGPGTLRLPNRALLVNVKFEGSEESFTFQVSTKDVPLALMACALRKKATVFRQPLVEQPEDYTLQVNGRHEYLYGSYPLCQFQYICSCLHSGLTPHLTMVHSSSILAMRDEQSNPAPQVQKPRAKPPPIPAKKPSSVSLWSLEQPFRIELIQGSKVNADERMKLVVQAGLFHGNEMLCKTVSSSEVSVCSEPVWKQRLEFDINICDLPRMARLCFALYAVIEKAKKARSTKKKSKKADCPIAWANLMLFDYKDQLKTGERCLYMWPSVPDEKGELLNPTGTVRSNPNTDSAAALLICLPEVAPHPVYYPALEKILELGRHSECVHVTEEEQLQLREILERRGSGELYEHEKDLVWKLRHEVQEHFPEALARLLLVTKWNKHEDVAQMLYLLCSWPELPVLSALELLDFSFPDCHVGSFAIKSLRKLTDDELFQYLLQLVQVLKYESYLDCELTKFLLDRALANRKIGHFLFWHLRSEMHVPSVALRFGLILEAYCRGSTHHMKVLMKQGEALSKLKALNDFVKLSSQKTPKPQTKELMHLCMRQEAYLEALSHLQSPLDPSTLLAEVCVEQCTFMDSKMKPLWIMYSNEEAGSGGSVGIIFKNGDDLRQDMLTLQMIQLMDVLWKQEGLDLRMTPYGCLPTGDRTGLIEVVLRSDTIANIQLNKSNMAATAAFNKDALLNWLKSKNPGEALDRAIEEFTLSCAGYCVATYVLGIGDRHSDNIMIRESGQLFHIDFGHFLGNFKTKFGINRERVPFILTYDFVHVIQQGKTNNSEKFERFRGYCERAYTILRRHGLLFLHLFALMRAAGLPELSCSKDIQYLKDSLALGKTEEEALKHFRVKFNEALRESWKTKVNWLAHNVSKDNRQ
Description: Inhibition of N-terminal His6-tagged recombinant full length human PI3Kdelta expressed in baculovirus infected Sf21 insect cells incubated for 30 mins by HTRF assay.

For assay [19], the system named is DOHH-2. In words: Antiproliferative activity against human DOHH-2 cells assessed as cell growth inhibition measured after 72 hrs by MTT assay. The format is functional, cell-based. As to conditions: DOHH-2, 72 h.
The subject of another assay is SUD4. Description: Antiproliferative activity against human SU-DHL-4 cells assessed as cell growth inhibition measured after 72 hrs by MTT assay. The class given is functional, cell-based. As to conditions: SU-DHL-4, 72 h.
The target of assay [20] is Phosphatidylinositol 4,5-bisphosphate 3-kinase catalytic subunit beta isoform (Homo sapiens, UniProt P42338). In words: Inhibition of N-terminal His6-tagged recombinant full length human PI3Kbeta expressed in baculovirus infected Sf21 insect cells incubated for 30 mins by HTRF assay.
Sequence of Phosphatidylinositol 4,5-bisphosphate 3-kinase catalytic subunit beta isoform (P42338 whole entry, canonical isoform): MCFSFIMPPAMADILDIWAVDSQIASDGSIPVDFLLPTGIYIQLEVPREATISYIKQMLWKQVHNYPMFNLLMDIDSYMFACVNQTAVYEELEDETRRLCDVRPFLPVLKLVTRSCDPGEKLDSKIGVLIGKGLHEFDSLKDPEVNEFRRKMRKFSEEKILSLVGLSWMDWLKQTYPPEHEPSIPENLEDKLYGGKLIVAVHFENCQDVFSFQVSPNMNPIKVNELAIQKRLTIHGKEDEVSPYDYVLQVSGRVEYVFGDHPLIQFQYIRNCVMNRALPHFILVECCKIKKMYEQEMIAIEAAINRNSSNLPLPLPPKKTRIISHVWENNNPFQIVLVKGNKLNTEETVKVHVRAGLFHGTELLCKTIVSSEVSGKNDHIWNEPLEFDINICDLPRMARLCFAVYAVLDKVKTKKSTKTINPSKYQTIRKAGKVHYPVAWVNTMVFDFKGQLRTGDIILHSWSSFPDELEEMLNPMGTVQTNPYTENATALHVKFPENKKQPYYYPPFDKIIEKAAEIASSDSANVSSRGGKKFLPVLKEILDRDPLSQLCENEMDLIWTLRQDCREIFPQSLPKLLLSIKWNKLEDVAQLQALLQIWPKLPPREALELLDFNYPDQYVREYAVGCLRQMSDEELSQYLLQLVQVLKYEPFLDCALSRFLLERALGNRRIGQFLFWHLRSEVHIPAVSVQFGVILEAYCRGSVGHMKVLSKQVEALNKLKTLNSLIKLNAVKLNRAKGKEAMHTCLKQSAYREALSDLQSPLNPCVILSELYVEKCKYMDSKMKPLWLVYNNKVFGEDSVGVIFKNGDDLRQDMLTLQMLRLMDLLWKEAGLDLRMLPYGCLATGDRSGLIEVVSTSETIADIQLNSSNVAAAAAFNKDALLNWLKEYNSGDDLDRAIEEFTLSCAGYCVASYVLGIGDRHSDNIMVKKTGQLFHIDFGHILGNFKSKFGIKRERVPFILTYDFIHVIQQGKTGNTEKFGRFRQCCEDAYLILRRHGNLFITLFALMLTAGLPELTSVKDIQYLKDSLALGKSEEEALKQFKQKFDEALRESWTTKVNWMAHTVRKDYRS

Sequence of Phosphatidylinositol 4,5-bisphosphate 3-kinase catalytic subunit gamma isoform (P48736 whole entry, canonical isoform): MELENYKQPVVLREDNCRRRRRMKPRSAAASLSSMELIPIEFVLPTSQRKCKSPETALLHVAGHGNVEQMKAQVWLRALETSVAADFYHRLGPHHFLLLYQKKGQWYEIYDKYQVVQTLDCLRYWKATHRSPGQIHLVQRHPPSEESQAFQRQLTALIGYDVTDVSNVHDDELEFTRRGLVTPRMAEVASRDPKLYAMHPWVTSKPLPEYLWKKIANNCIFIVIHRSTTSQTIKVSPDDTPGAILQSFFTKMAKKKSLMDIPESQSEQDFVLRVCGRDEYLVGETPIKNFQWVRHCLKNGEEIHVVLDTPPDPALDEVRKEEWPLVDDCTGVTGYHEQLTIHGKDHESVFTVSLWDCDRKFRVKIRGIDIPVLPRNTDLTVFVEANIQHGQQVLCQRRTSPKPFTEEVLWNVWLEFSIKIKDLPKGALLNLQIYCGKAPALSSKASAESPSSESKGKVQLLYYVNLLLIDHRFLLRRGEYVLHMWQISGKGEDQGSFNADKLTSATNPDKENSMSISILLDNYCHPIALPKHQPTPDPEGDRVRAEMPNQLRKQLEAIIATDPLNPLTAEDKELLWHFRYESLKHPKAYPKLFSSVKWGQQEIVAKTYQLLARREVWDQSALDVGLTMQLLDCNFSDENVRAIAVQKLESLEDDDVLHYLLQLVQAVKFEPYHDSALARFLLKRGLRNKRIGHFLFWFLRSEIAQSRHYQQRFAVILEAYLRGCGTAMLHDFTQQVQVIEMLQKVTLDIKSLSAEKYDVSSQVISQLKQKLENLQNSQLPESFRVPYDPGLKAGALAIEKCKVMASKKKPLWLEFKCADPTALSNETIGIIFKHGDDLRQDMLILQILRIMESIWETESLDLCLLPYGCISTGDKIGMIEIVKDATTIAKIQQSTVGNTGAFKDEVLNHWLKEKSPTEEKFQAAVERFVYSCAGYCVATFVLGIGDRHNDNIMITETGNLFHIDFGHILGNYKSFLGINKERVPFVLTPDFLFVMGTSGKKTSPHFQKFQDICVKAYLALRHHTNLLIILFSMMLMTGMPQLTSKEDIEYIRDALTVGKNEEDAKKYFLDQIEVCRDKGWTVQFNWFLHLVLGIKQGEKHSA

`C=CC(=O)N1CCC[C@@H](n2nc(-c3ccc(Oc4ccccc4)cc3)c3c(N)ncnc32)C1` [IBRUTINIB]: the Activity in the assay on SU-DHL-6 [1] is reported as 0.15%; in the assay with SU-DHL-6 [2] it was 29.85%; with DOHH-2 [3] it was 13.92%; with DOHH-2 [4] it was 40.49%; with SU-DHL-6 [6], 4.62%; with DOHH-2 [7] it was 0.7%. The Activity amounted to 10.7% in the assay with DOHH-2 [8]; 9.9% in the assay on SU-DHL-6 [9]; 46.69% with DOHH-2 [10]; 58.11% in the assay on SU-DHL-6 [12]; 12.04% with SU-DHL-6 [13]; 8.69% in the assay with DOHH-2 [14]. Moreover, in the assay on DOHH-2 [5], the viability at 1 µM came out at 79.9%. In addition, the viability at 1.5 µM in the assay on SU-DHL-6 [11] came out at 86.1%.
As a reminder, the IC50 is the midpoint of a concentration-inhibition curve. As for `C[C@H]1CC[C@@H](c2nc3cccc(Cl)c3c(=O)n2-c2cccc(F)c2)N1c1nc(N)nc(N)c1C#N`, the IC50 in assay [15] worked out at 258 µM; in the assay on SU-DHL-6 [16], 0.19 µM; in [17], 17 µM; in assay [18], 2 µM; in the assay with DOHH-2 [19], 0.5 µM; in the assay on SUD4 it was 0.09 µM. Further, in assay [20], the IC50 is 412 µM.
In the case of `N#Cc1c(N)nc(N)nc1N1[C@H](c2nc3cccc(F)c3c(=O)n2-c2cccnc2)C[C@@H]2CCCC[C@@H]21`, the IC50 worked out at 3120 µM in [15]; 1.1 µM with SU-DHL-6 [16]; 364 µM in assay [17]; 42 µM in [18]; 2.57 µM with DOHH-2 [19]; 1.12 µM in the assay with SUD4. In addition, in assay [20], the IC50 worked out at 1550 µM.
